The target in this data set is SNHG14. To be noted: ASO.

After the bases stand the sugars from the 5' end (letter, count) and the backbone: PS all phosphorothioate, else s phosphorothioate and o phosphodiester by linkage. Methylation of C is not given here. l = locked nucleic acid (LNA); d = 2'-deoxy (DNA)

Regarding CTAATGCAATAACCCA (sugars l2 d10 l4, PS), the target mRNA inhibition reads like this: (Human Neuronal Cell, 0.2 µM) 45%; (Human Neuronal Cell, 1 µM) 34%. As for “CTTTCCATTTATTTCCATT (sugars l1 d3 l1 d11 l3, PS)”, where the note is “Human Neuronal Cell, 7.5 µM”, the target mRNA inhibition stood at 58%. For the sequence “AATTTTTTTCTTACTATCTT (sugars ldllddddddddddllddll, PS)”, the target mRNA inhibition (Human Neuronal Cell, 7.5 µM) turned out to be 44%. On the same count and under the same terms, the value for “TTATAGCCATTCTATCT (sugars ldddlddddddldldll, PS)” was 5%; that for “TTCTGTATACACCATCC (sugars ldddlddddddddldll, PS)” was 65%. Same read-out and setting: under “ATATTGATTCAATTCCC (sugars l1 d3 l1 d8 l4, PS)” stands 67%.

For TATAGCCATTCTATCT (sugars l4 d10 l2, PS), the target mRNA inhibition stood at 61% (Human Neuronal Cell, 0.2 µM) and 67% (Human Neuronal Cell, 1 µM). With “GTTTATACCCTTTCCAAT (sugars ldlldddddddddldlll, PS)”, the target mRNA inhibition (Human Neuronal Cell, 7.5 µM) was 63%. On the same count and under the same terms, the value for “TTATAGCCATTCTATCT (sugars llddlddddddlddlll, PS)” was 39%. The same measure, in the same setting: the value for “TTATAGCCATTCTATCT (sugars ldlddddddddlddlll, PS)” was 57%.

Turning to ATTTCATTAAGTCACC (sugars l2 d10 l4, PS), the target mRNA inhibition reads like this: (Human Neuronal Cell, 0.2 µM) 46%; (Human Neuronal Cell, 1 µM) 59%.

In the case of “AATTATTTATACACCATCAT (sugars lllddllddddddldlldll, PS)”, under “Human Neuronal Cell, 7.5 µM”, the target mRNA inhibition came out at 56%. As for CCTAAGCTCCATATTT (sugars l4 d10 l2, PS), the target mRNA inhibition (Human Neuronal Cell, 0.2 µM) was 39% and the target mRNA inhibition (Human Neuronal Cell, 1 µM) stood at 45%. With “TACTCTGCAATACACCA (sugars l1 d3 l1 d10 l2, PS)”, for the setting “Human Neuronal Cell, 7.5 µM”, the target mRNA inhibition came to 54%. Still for that read-out and setting: the value for “AGTTCTACTATACTTTC (sugars l3 d11 l3, PS)” was 57%; that for “TGTTTATACCCTTTCCAA (sugars l2 d2 l1 d11 l2, PS)” was 64%. Turning to “TTCTACTATACTTTCCTCT (sugars ldddlddddddddddldll, PS)”, the target mRNA inhibition (Human Neuronal Cell, 7.5 µM) is 53%. Turning to “TTTATACCTTTCTTTAAC (sugars l2 d12 l4, PS)”, the target mRNA inhibition was 4% (Human Neuronal Cell, 0.2 µM) and 21% (Human Neuronal Cell, 1 µM).

Turning to “TAATCCCATACATCTAT (sugars l2 d11 l4, PS)”, the target mRNA inhibition reads like this: (Human Neuronal Cell, 0.2 µM) 50%; (Human Neuronal Cell, 1 µM) 61%. Consider “TATACCTTTCTTTAACCCTT (sugars l1 d15 l1 d1 l2, PS)”, for which the target mRNA inhibition (Human Neuronal Cell, 7.5 µM) came to 58%. The same measure, in the same setting: the value for “TTTATCAATATCTTCTCAC (sugars lldldlddddddllddlll, PS)” was 58%. Turning to “GCACATTCTTTCTATACC (sugars l1 d15 l2, PS)”, the target mRNA inhibition (Human Neuronal Cell, 7.5 µM) was 25%. Turning to AAGATCATTCTCAACA (sugars l4 d10 l2, PS), the target mRNA inhibition worked out at 60% (Human Neuronal Cell, 0.2 µM) and 67% (Human Neuronal Cell, 1 µM). In the case of “AAAATCTCAACTACCATTTT (sugars l1 d12 l4 d1 l2, PS)”, under “Human Neuronal Cell, 7.5 µM”, the target mRNA inhibition came out at 42%.

Consider “AGCAACATTATTAACCAC (sugars ldllldddddddlldlll, PS)”, for which, under “Human Neuronal Cell, 7.5 µM”, the target mRNA inhibition is 26%. The same measure, in the same setting: the value for “ATATTGATTCAATTCCC (sugars l1 d1 l3 d10 l2, PS)” was 70%; that for “GCTTTTAACCAGAGTGG (sugars l1 d12 l4, PS)” was 73%.

Take ACTCTCACTGTAACTT (sugars l3 d10 l3, PS): the target mRNA inhibition reads like this: (Human Neuronal Cell, 0.2 µM) 36%; (Human Neuronal Cell, 1 µM) 44%. Take “ATCTCATGACCACCTAA (sugars l1 d12 l4, PS)”: the target mRNA inhibition (Human Neuronal Cell, 7.5 µM) was 48%.

On to “CTACATCTCATACTTGC (sugars l3 d11 l3, PS)”, for which the target mRNA inhibition (Human Neuronal Cell, 0.2 µM) is -4%; the target mRNA inhibition (Human Neuronal Cell, 1 µM) was -27%; the target mRNA inhibition (Human Neuronal Cell, 5 µM) worked out at 1%; the target mRNA inhibition (Mouse Primary Neuronal Cell, 0.005 µM) stood at 94.6%. With CATTCAACCCTAATCA (sugars l3 d10 l3, PS), the target mRNA inhibition (Human Neuronal Cell, 0.2 µM) came to 26% and the target mRNA inhibition (Human Neuronal Cell, 1 µM) is 38%. With “GTTCTACTATACTTTCCT (sugars l1 d2 l1 d12 l2, PS)”, the target mRNA inhibition (Human Neuronal Cell, 7.5 µM) came to 53%. Same read-out and setting: under “CTTTCCATTTATTTCCATTT (sugars ldldddldddddddddldll, PS)” stands 54%; under “TTTATCAATATCTTCTCACT (sugars lddldldddddddddddlll, PS)”, 57%. For the sequence “TCCAAACTGTCTTCTAA (sugars l3 d12 l2, PS)”, the target mRNA inhibition (Human Neuronal Cell, 0.2 µM) was found to be 36% and the target mRNA inhibition (Human Neuronal Cell, 1 µM) was 23%. Consider “TCCATTTATTTCCATTTAT (sugars llddlddddddddldldll, PS)”, for which the target mRNA inhibition (Human Neuronal Cell, 7.5 µM) was determined as 40%.

In the case of “ATCATTCTCAACAATTA (sugars l4 d7 l1 d1 l4, PS)”, the target mRNA inhibition (Human Neuronal Cell, 7.5 µM) is 53%.

On to TCCAACATAGATCCTC (sugars l2 d10 l4, PS), for which the target mRNA inhibition is, setting by setting: (Human Neuronal Cell, 0.2 µM) 52%; (Human Neuronal Cell, 1 µM) 65%. As to “TATTCTCAATTGCACTT (sugars l4 d11 l2, PS)”, the target mRNA inhibition is, setting by setting: (Human Neuronal Cell, 0.2 µM) 46%; (Human Neuronal Cell, 1 µM) 61%. Take TTTACATTGACACCTA (sugars l2 d10 l4, PS): the target mRNA inhibition was determined as 20% (Human Neuronal Cell, 0.2 µM) and 31% (Human Neuronal Cell, 1 µM). Taken in the same sequence, the figures for CTTTAATGCTTCTAAC (sugars l2 d10 l4, PS) were -3% and 26%.

As for “TTCTGTATACACCATCC (sugars lddlddddddddlddll, PS)”, the target mRNA inhibition (Human Neuronal Cell, 7.5 µM) was 60%. The same measure, in the same setting: under “TATTGATTCAATTCCCT (sugars l1 d2 l1 d10 l3, PS)” stands 72%; under “TTCTGTATACACCATCCC (sugars l1 d11 l1 d3 l2, PS)”, 54%. For TCCTCTGCTTATAACT (sugars l3 d11 l2, PS), the target mRNA inhibition runs as follows: (Human Neuronal Cell, 0.2 µM) 51%; (Human Neuronal Cell, 1 µM) 77%.

For the sequence TTCTTGTTTATCCCAA (sugars l2 d10 l4, PS), the target mRNA inhibition worked out at 67% (Human Neuronal Cell, 0.2 µM) and 71% (Human Neuronal Cell, 1 µM).

“TACTCTGCAATACACCA (sugars l2 d10 l1 d2 l2, PS)”: where the note is “Human Neuronal Cell, 7.5 µM”, the target mRNA inhibition was 61%.

For the sequence “ATTGATTCAATTCCCTT (sugars lddlldddddddlldll, PS)”, where the note is “Human Neuronal Cell, 7.5 µM”, the target mRNA inhibition is 59%. On the same count and under the same terms, under “AAAATCTCAACTACCATTT (sugars lddddlddddddlllldll, PS)” stands 45%. As for “TCCAACATAGATCCTCT (sugars l2 d11 l4, PS)”, the target mRNA inhibition stood at 45% (Human Neuronal Cell, 0.2 µM) and 55% (Human Neuronal Cell, 1 µM). On to “CTGTATACACCATCCCA (sugars ldddlddddddddldll, PS)”, for which the target mRNA inhibition (Human Neuronal Cell, 7.5 µM) is 68%. With “TTGATTCAATTCCCTTA (sugars lldlddddddddlddll, PS)”, the target mRNA inhibition (Human Neuronal Cell, 7.5 µM) came to 63%. CCTTAATCTGTATCAC (sugars l3 d10 l3, PS): the target mRNA inhibition by setting is: (Human Neuronal Cell, 0.2 µM) 38%; (Human Neuronal Cell, 1 µM) 52%. On to “CAACATTATTAACCACCTTA (sugars l1 d2 l2 d13 l2, PS)”, for which, under “Human Neuronal Cell, 7.5 µM”, the target mRNA inhibition is 47%.

“TTCTACTATACTTTCCTCT (sugars l1 d14 l1 d1 l2, PS)”: the target mRNA inhibition (Human Neuronal Cell, 7.5 µM) is 50%. Same read-out and setting: the value for “CCATTTATTTCCATTTATTT (sugars ldddldddddddddldldll, PS)” was 56%. With ATTCAACCCTAATCAC (sugars l2 d10 l4, PS), the target mRNA inhibition was 16% (Human Neuronal Cell, 0.2 µM) and 26% (Human Neuronal Cell, 1 µM). On to “TACACTTAATTATACTTCCA (sugars lddddldddddddldlddll, PS)”, for which the target mRNA inhibition (Human Neuronal Cell, 7.5 µM) amounted to 60%. Same read-out and setting: under “TAAAATTATTTATACACCAT (sugars lldddldddddddldlllll, PS)” stands 46%; under “ACTCTGCAATACACCAA (sugars ldddldddddddldlll, PS)”, 66%. “TTATCATTTCATATTACT (sugars l4 d12 l2, PS)”: the target mRNA inhibition is, setting by setting: (Human Neuronal Cell, 0.2 µM) 16%; (Human Neuronal Cell, 1 µM) 34%. Taken in the same sequence, the figures for “AGCATTCAACCCTAATC (sugars l4 d11 l2, PS)” were 52% and 50%. Taken in the same sequence, the figures for “GACCACACTTTCTACCA (sugars l2 d13 l2, PS)” were 27% and 48%. Consider ATCTGAATCAAACCTT (sugars l2 d10 l4, PS), for which the target mRNA inhibition turned out to be 45% (Human Neuronal Cell, 0.2 µM) and 45% (Human Neuronal Cell, 1 µM). As to TCTTTAAGCTTCCCAC (sugars l2 d10 l4, PS), the target mRNA inhibition worked out at 34% (Human Neuronal Cell, 0.2 µM) and 44% (Human Neuronal Cell, 1 µM). With “TTCCATTTATTTCCATTTAT (sugars ldldddldddddddldddll, PS)”, the target mRNA inhibition (Human Neuronal Cell, 7.5 µM) was found to be 56%. Take “TTCACCAGTATTTCTTC (sugars l4 d11 l2, PS)”: the target mRNA inhibition was determined as 36% (Human Neuronal Cell, 0.2 µM) and 32% (Human Neuronal Cell, 1 µM). As to “TTATAGCCATTCTATCT (sugars ldldddddddddlldll, PS)”, the target mRNA inhibition (Human Neuronal Cell, 7.5 µM) came out at 45%. Consider “TGTTTCCATCTACTATTA (sugars ldldddddddddddldll, PS)”, for which the target mRNA inhibition (Human Neuronal Cell, 7.5 µM) amounted to 61%. Same read-out and setting: the value for “AAAATCTCAACTACCATTTT (sugars l3 d11 l2 d1 l3, PS)” was 12%; that for “GTTCTACTATACTTTCCT (sugars lldldlddddddddddll, PS)” was 63%; that for “TTTCCATTTATTTCCATTTA (sugars l2 d2 l1 d12 l3, PS)” was 62%. As for “TTATAGCCATTCTATCT (sugars l3 d1 l1 d10 l2, PS)”, the target mRNA inhibition (Human Neuronal Cell, 7.5 µM) was found to be 65%. The same measure, in the same setting: under “GTTTCCATCTACTATTAAT (sugars ldldddddddddlldddll, PS)” stands 51%. Consider CCATGCTACATAAACC (sugars l4 d10 l2, PS), for which the target mRNA inhibition was found to be 36% (Human Neuronal Cell, 0.2 µM) and 50% (Human Neuronal Cell, 1 µM). As for “CTTTCCATTTATTTCCATTT (sugars l1 d13 l1 d3 l2, PS)”, the target mRNA inhibition (Human Neuronal Cell, 7.5 µM) came out at 35%. Take ATGCTTCTAACTAACA (sugars l4 d10 l2, PS): the target mRNA inhibition came out at 25% (Human Neuronal Cell, 0.2 µM) and 46% (Human Neuronal Cell, 1 µM).

The record behind these values is the OligoGym collection.
